Data from US20130331261A1 (priority 2010, published 2013).

Legend:
Type in all cases: cell-based
Fusarium graminearum = test: microbe, parasite or virus in culture; settings: 72 h, read-out: % Inhibition of fungal growth at 50 μM
Aspergillus parasiticus = test: microbe, parasite or virus in culture; settings: 168 h, read-out: % Inhibition of fungal growth at 50 μM
[1] = test system: Production of Aflatoxins by Aspergillus parasiticus; test: microbe, parasite or virus in culture; settings: 168 h, read-out: % Inhibition of Aflatoxin at 50 μM
[2] = test system: Fumonisin FB1 production by Fusarium proliferatum; test: Inhibition of fumonisin FB1 production by Fusarium proliferatum in fumonisin-inducing liquid media (HPLC-MS/MS); settings: 120 h, 5 days at 20° C., vs control without compound
Fusarium proliferatum = test: microbe, parasite or virus in culture; settings: 120 h
[3] = test system: DON/Acetyl-DON production by Fusarium graminearum; test: microbe, parasite or virus in culture; settings: 168 h, read-out: % Inhibition of DON/AcDON at 50 μM

SMILES | inhibition at 50 µM (Fusarium graminearum) | inhibition at 50 µM (Aspergillus parasiticus) | inhibition at 50 µM [1] | inhibition at 50 µM [2] | inhibition at 50 µM (Fusarium proliferatum) | inhibition at 50 µM [3]
COC(c1ccc(Cl)cc1Cl)C(C)NC(=O)c1cn(C)nc1C(F)F (stereo not drawn) [Example 1] | 54% | 100% | 100% | 100% | 67% | 100%
COC(c1ccc(Cl)cc1Cl)C(C)NC(=O)c1c(C)nn(C)c1F (stereo not drawn) [Example 2] | 58% | 100% | 100% | 100% | 77% | 100%
COC(c1ccc(Cl)cc1Cl)C(C)NC(=O)c1c(C(F)F)nn(C)c1F (stereo not drawn) [Example 3] | 41% | 100% | 100% | 100% | 86% | 100%
